According to US10857136B2, “Compounds for use in the prevention and/or treatment of non-alcoholic fat liver disease and non-alcoholic steatohepatitis” (SJT MOLECULAR RESEARCH, SL, priority 2017, dated 2020):

Tested on: DIO mice (C57Bl/6 J male mice)
Experiment: Liver lipid content, 36 days assay in DIO mice (colorimetric kits)
Format: in vivo
Conditions: 50 mg/kg orally twice daily, after 36 days, vs saline control
Method: To assess the performance of the compounds disclosed in decreasing hepatic lipid content, DIO mice (C57Bl/6 J male mice) were treated with a hydrochloride salt of compound 4a; and with compound 7a during 36 days, versus a control of DIO mice treated with saline (0.9% NaCl) and versus DIO mice treated with Metformin as a positive control.
For the assessment, 60 C57Bl/6 J male mice (16-week-old at delivery and 40 g of average weight), obtained from Charles River France, were put on high fat diet for 10 weeks. The animals were housed in ventilated and enriched housing cages (310×125×127 mm^3) throughout the experimental phase. Animals' cages litters were changed at least once a week. Mice were housed in groups of 10 mice on a normal 12 hours light cycle (at 08:00 pm lights were switched off), at 22±2° C. and 50±10% relative humidity. After reception, mice were maintained for three additional acclimation weeks. During the whole assessment (acclimation+treatment phase) a high fat diet (D12492 purchased from Research Diet Inc; 60% fat) and tap water were provided ad libitum.
After the acclimation period, mice were fasted for 6 hours and blood glucose and plasma insulin were measured. Ten animals, those with lower blood glucose/plasma insulin, were discarded from the study. Then, the others were randomized into 5 homogenous groups (n=10 mice per group) according to their blood glucose/plasma insulin levels (HOMA-IR) and body weight. Mice were treated orally twice daily for 36 days with either saline solution (control group), SJT test compound (4a, 7a; 50 mg/kg) or metformin (150 mg/kg).
Finally, mice were sacrificed, and liver was collected, weighted and stored at −80° C. for additional analysis. Liver samples were dissected for liver lipids assay. Liver lipids were assayed using colorimetric commercial assay kits, from liver samples homogenate after lipid solubilization in deoxycholate as described by Miao et al., J Lipid Res, 2004, 45, 1410-17. Samples were homogenized with an ultrasound probe with 500 μl distilled water during few seconds. Then cholic acid at 1% is added to make lipids soluble. The measurement of the different lipids was then performed using colorimetric kits from Sobioda, France.

## COc1ccc(-c2nc(C(=O)NCCN)cc3c2[nH]c2ccccc23)cc1 [Compound 4a, N(-ethylamine)-1-benzosubstituted-β-carboline-3-carboxamide]
  hepatic cholesterol: lower lipid levels than untreated control animals
  hepatic fatty acids: lower lipid levels than untreated control animals
  hepatic triglycerides: lower lipid levels than untreated control animals
